What was measured:
[1] = target: T1, Thiosulfate sulfurtransferase (Homo sapiens, UniProt Q16762); assay type: ADME;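 further: native rhodanese of unspecified species, enzyme activity read after 45 min by spectrophotometric detection of Fe(SCN)3 colour, IC50 reflects activity reduction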
T1 sequence (Q16762 whole entry): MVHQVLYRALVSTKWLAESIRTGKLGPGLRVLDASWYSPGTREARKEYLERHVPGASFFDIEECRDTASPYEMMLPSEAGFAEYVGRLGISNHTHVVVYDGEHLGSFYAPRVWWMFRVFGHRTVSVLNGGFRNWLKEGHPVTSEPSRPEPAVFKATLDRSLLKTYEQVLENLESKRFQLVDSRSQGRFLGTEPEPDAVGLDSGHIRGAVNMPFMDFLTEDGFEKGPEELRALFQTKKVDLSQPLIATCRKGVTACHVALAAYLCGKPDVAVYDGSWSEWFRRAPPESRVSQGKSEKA
Description: Inhibition of native rhodanese (unknown origin) assessed as reduction in rhodanese enzyme activity after 45 mins by Fe(SCN)3 dye based spectrometric analysis

HSP60/HSP10 = HSP60/HSP10 (Homo sapiens, UniProt P10809);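 further: His-tagged human HSP60 with HSP10 refolding denatured MDH, read as MDH activity on mesoxalate by malachite green spectrometry, inhibition of refolding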
Sequence of HSP60/HSP10 (P10809 whole entry): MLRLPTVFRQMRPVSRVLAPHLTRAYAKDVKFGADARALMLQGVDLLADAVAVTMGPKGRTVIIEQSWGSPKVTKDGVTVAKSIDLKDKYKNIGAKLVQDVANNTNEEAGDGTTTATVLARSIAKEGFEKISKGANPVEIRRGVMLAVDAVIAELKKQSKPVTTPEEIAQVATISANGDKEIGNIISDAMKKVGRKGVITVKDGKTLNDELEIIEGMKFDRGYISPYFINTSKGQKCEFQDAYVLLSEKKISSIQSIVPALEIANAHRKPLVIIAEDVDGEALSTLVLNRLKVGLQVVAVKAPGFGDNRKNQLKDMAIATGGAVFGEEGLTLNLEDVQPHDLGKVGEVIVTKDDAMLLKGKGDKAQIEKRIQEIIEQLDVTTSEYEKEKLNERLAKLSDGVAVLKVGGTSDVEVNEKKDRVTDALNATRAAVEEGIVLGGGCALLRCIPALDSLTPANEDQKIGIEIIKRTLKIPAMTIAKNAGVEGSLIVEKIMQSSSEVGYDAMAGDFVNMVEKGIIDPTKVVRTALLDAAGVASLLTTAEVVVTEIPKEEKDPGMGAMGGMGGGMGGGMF
Sequence of HSP60/HSP10 (P61604 whole entry, further chain): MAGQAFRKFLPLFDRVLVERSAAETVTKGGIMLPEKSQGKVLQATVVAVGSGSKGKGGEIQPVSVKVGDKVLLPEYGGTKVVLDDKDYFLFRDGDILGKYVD
Description: Inhibition of human N-terminal octa-His-tagged HSP60 expressed in Escherichia coli Rosetta(DE3) pLysS/human HSP10 expressed in Escherichia coli Rosetta(DE3) assessed as reduction in HSP60/HSP10-mediated denatured MDH refolding by measuring MDH enzyme activity using sodium mesoxalate as substrate after 40 to 60 mins by malachite green dye based spectrometric analysis

E. coli GroEL/ES [2] = target: T2, E. coli GroEL/ES (Escherichia coli, UniProt P0A6F5)
T2 sequence (P0A6F5 whole entry, looked up): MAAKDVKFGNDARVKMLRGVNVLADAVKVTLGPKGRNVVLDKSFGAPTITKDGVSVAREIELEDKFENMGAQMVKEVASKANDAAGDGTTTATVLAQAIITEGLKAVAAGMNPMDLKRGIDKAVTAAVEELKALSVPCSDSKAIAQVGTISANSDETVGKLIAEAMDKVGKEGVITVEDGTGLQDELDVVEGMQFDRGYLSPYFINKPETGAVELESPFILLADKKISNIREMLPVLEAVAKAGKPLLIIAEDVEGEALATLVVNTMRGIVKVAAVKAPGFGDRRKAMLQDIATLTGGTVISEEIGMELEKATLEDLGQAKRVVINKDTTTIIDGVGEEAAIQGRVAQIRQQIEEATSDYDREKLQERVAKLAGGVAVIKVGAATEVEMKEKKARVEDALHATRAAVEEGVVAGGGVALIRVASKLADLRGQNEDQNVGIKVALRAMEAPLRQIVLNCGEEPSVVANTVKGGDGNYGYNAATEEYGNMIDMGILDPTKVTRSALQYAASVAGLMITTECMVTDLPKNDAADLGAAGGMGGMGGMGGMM
Description: Inhibition of Escherichia coli GroEL expressed in Escherichia coli DH5alpha/Escherichia coli GroES expressed in Escherichia coli BL21 (DE3) assessed as reduction in GroEL/GroES-mediated denatured rhodanese refolding by measuring rhodanese enzyme activity after 45 mins by Fe(SCN)3 dye based spectrometric analysis

E. coli GroEL/ES [3] = target: T2, E. coli GroEL/ES; remark: listed apart in the source
Description: Inhibition of Escherichia coli GroEL expressed in Escherichia coliDH5alpha/Escherichia coli GroES expressed in Escherichia coli BL21 (DE3) assessed as reduction in GroEL/GroES-mediated denatured soluble pig heart MDH refolding by measuring MDH enzyme activity using sodium mesoxalate as substrate after 20 to 40 mins by malachite green dye based spectrometric analysis

Chaperonin GroEL = Chaperonin GroEL (Escherichia coli (strain K12), UniProt P0A6F5);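 further: inhibition of GroEL ATPase activity with ATP as substrate, 60 min incubation, spectrometric read-out, recombinant enzyme produced in Escherichia coli DH5alpha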
Sequence of Chaperonin GroEL (P0A6F5 whole entry): as the sequence (P0A6F5 whole entry, looked up) above
Description: Inhibition of ATPase activity of Escherichia coli GroEL expressed in Escherichia coliDH5alpha incubated for 60 mins using ATP by spectrometric analysis

Molecule	IC50 [1]	IC50 (HSP60/HSP10)	IC50 (E. coli GroEL/ES [2])	IC50 (E. coli GroEL/ES [3])	IC50 (Chaperonin GroEL)
CCOc1nc2cccc(C(=O)O)c2n1Cc1ccc(-c2ccccc2-c2nnn[nH]2)cc1	> 100 µM	> 100 µM	> 250 µM	> 100 µM	–
CCCCN1CCC(COC(=O)c2cc(Cl)c(N)c3c2OCCO3)CC1	> 100 µM	> 100 µM	> 250 µM	> 100 µM	–
COc1ccc(-c2ccc3cc(C(=O)O)ccc3c2)cc1C12CC3CC(CC(C3)C1)C2	> 100 µM	2.3 µM	5.1 µM	2.1 µM	> 250 µM
Cc1cc2c(C(C)C)c(O)c(O)c(C=O)c2c(O)c1-c1c(C)cc2c(C(C)C)c(O)c(O)c(C=O)c2c1O	11 µM	1.2 µM	0.43 µM	0.66 µM	> 250 µM
CC[C@H](C)C1O[C@]2(C=C[C@@H]1C)C[C@@H]1C[C@@H](C/C=C(\C)[C@@H](O[C@H]3C[C@H](OC)[C@@H](O[C@H]4C[C@H](OC)[C@H](NC(C)=O)[C@H](C)O4)[C@H](C)O3)[C@@H](C)/C=C/C=C3\CO[C@@H]4[C@H](O)C(C)=C[C@@H](C(=O)O1)[C@]34O)O2 (some centres undefined)	> 100 µM	17 µM	38 µM	11 µM	> 250 µM
COc1cc(-c2ccc(/N=N/c3ccc4c(S(=O)(=O)O)cc(S(=O)(=O)O)c(N)c4c3O)c(OC)c2)ccc1/N=N/c1ccc2c(S(=O)(=O)O)cc(S(=O)(=O)O)c(N)c2c1O	8.5 µM	–	2 µM	3.9 µM	–
CCCCCCCCCCCCCCCCC(C(=O)O)C(O)(CC(=O)O)C(=O)O (centres undefined)	> 100 µM	4 µM	8.9 µM	3.5 µM	> 250 µM
O=C(/C=C/c1ccccc1)c1ccc(O)cc1 [4'-HYDROXYCHALCONE]	> 100 µM	20 µM	56 µM	21 µM	> 250 µM
COc1ccc(C(=O)/C=C/c2ccccc2)cc1 [4'-METHOXYCHALCONE]	> 100 µM	16 µM	30 µM	13 µM	> 250 µM
O=C(/C=C/c1ccc(O)cc1)c1ccccc1 [4-HYDROXYCHALCONE]	> 100 µM	22 µM	40 µM	21 µM	> 250 µM
CCCCCCCCCc1ccc(O)cc1 [4-NONYLPHENOL]	72 µM	9.5 µM	29 µM	12 µM	> 250 µM
CC[C@H](C)[C@H]1O[C@]2(C=C[C@@H]1C)C[C@@H]1C[C@@H](C/C=C(\C)[C@@H](O[C@H]3C[C@H](OC)[C@@H](O[C@H]4C[C@H](OC)[C@@H](O)[C@H](C)O4)[C@H](C)O3)[C@@H](C)/C=C/C=C3\CO[C@@H]4[C@H](O)C(C)=C[C@@H](C(=O)O1)[C@]34O)O2 [ABAMECTIN COMPONENT B1A]	> 100 µM	15 µM	32 µM	9.8 µM	> 250 µM
CC(C)(C)NCC(O)c1ccc(O)c(CO)c1 (centres undefined) [ALBUTEROL]	> 100 µM	> 100 µM	> 250 µM	> 100 µM	–
CCCCC/C=C\C/C=C\C/C=C\C/C=C\CCCC(=O)O [ARACHIDONIC ACID]	> 100 µM	4.5 µM	18 µM	7.3 µM	> 250 µM
CCCCCCCCCCCCCCCC(=O)OC[C@H](O)[C@H]1OC(=O)C(O)=C1O [ASCORBYL PALMITATE]	53 µM	3.1 µM	8.5 µM	3.5 µM	177 µM
O=C(O)C1=CC(=C(c2ccc(O)c(C(=O)O)c2)c2ccc(O)c(C(=O)O)c2)C=CC1=O [AURINTRICARBOXYLIC ACID]	> 100 µM	3.2 µM	0.57 µM	0.9 µM	> 250 µM
CCc1oc2ccccc2c1C(=O)c1cc(Br)c(O)c(Br)c1 [BENZBROMARONE]	> 100 µM	9.1 µM	49 µM	18 µM	> 250 µM
Oc1c(Cl)cc(Cl)cc1Sc1cc(Cl)cc(Cl)c1O [BITHIONOL]	> 100 µM	2.8 µM	13 µM	4.3 µM	> 250 µM
C=C1CC[C@H](O)C/C1=C/C=C1\CCC[C@]2(C)[C@@H]([C@H](C)CCCC(C)C)CC[C@@H]12 [CHOLECALCIFEROL]	> 100 µM	11 µM	31 µM	22 µM	> 250 µM
Cc1cc(C(C#N)c2ccc(Cl)cc2)c(Cl)cc1NC(=O)c1cc(I)cc(I)c1O (centres undefined) [CLOSANTEL]	> 100 µM	2.8 µM	2 µM	–	> 250 µM

Molecule	IC50 [1]	IC50 (HSP60/HSP10)	IC50 (E. coli GroEL/ES [2])	IC50 (E. coli GroEL/ES [3])	IC50 (Chaperonin GroEL)
COc1cc(/C=C/C(=O)CC(=O)/C=C/c2ccc(O)c(OC)c2)ccc1O [CURCUMIN]	56 µM	8.3 µM	2.9 µM	3.1 µM	> 250 µM
Oc1ccc(Cl)cc1Cc1cc(Cl)ccc1O [DICHLOROPHEN]	> 100 µM	17 µM	66 µM	24 µM	> 250 µM
O=C(O[C@@H]1Cc2c(O)cc(O)cc2O[C@@H]1c1cc(O)c(O)c(O)c1)c1cc(O)c(O)c(O)c1 [EPIGALOCATECHIN GALLATE]	7.3 µM	2.3 µM	0.58 µM	0.36 µM	> 250 µM
C=C1CC[C@H](O)C/C1=C/C=C1\CCC[C@]2(C)[C@@H]([C@H](C)/C=C/[C@H](C)C(C)C)CC[C@@H]12 [ERGOCALCIFEROL]	–	45 µM	41 µM	28 µM	> 250 µM
CC[C@H]1OC(=O)[C@H](C)[C@@H](O[C@H]2C[C@@](C)(OC)[C@@H](O)[C@H](C)O2)[C@H](C)[C@@H](O[C@@H]2O[C@H](C)C[C@H](N(C)C)[C@H]2O)[C@](C)(O)C[C@@H](C)C(=O)[C@H](C)[C@@H](O)[C@]1(C)O [ERYTHROMYCIN]	> 100 µM	> 100 µM	178 µM	> 100 µM	> 250 µM
C=C(CC)C(=O)c1ccc(OCC(=O)O)c(Cl)c1Cl [ETHACRYNIC ACID]	> 100 µM	8.5 µM	4.7 µM	5.2 µM	> 250 µM
Cc1cc(-c2ccc(/N=N/c3ccc4c(S(=O)(=O)O)cc(S(=O)(=O)O)c(N)c4c3O)c(C)c2)ccc1/N=N/c1ccc2c(S(=O)(=O)O)cc(S(=O)(=O)O)c(N)c2c1O [EVANS BLUE]	8.7 µM	0.17 µM	0.087 µM	0.039 µM	161 µM
CC1=NCCc2c1[nH]c1cc(O)ccc21 [HARMALOL]	–	> 100 µM	–	> 100 µM	> 250 µM
O=C1C=C2CC3(O)COc4c(ccc(O)c4O)C3=C2C=C1O (centres undefined) [HEMATEIN]	12 µM	3.6 µM	–	1.8 µM	> 250 µM
C[C@H](CCC(=O)O)[C@H]1CC[C@H]2[C@@H]3CC[C@@H]4C[C@H](O)CC[C@]4(C)[C@H]3CC[C@]12C [LITHOCHOLIC ACID]	> 100 µM	10 µM	59 µM	–	> 250 µM
Nc1ccc(O)c(C(=O)O)c1 [MESALAMINE]	0.28 µM	–	–	–	–
CN(C)c1ccc2nc3ccc(=[N+](C)C)cc-3sc2c1 [METHYLENE BLUE]	6.1 µM	> 100 µM	–	–	–
CC(=O)O[C@H]1C(=O)[C@@]2(C)[C@H]([C@H](OC(=O)c3ccccc3)[C@]3(O)C[C@H](OC(=O)[C@H](O)[C@@H](NC(=O)c4ccccc4)c4ccccc4)C(C)=C1C3(C)C)[C@]1(OC(C)=O)CO[C@@H]1C[C@@H]2O [PACLITAXEL]	–	> 100 µM	114 µM	56 µM	> 250 µM
COc1cc(NC(C)CCCN)c2ncccc2c1 (centres undefined) [PRIMAQUINE]	2.9 µM	> 100 µM	–	–	–
Cc1cc2nc3c(=O)[nH]c(=O)nc-3n(C[C@H](O)[C@H](O)[C@H](O)COP(=O)(O)O)c2cc1C [RIBOFLAVIN 5'-PHOSPHATE SODIUM]	0.38 µM	–	0.77 µM	85 µM	> 250 µM
Cc1cc2nc3c(=O)[nH]c(=O)nc-3n(C[C@H](O)[C@H](O)[C@H](O)CO)c2cc1C [RIBOFLAVIN]	–	> 100 µM	18 µM	> 100 µM	> 250 µM
Cc1ccc(C(=O)Nc2ccc(S(=O)(=O)O)c3cc(S(=O)(=O)O)cc(S(=O)(=O)O)c23)cc1NC(=O)c1cccc(NC(=O)Nc2cccc(C(=O)Nc3cc(C(=O)Nc4ccc(S(=O)(=O)O)c5cc(S(=O)(=O)O)cc(S(=O)(=O)O)c45)ccc3C)c2)c1 [SURAMIN]	> 100 µM	7.2 µM	–	–	> 250 µM
C=C(NC(=O)C(=C)NC(=O)c1csc(C2=N[C@@H]3c4csc(n4)[C@H]4NC(=O)c5csc(n5)[C@H]([C@](C)(O)[C@@H](C)O)NC(=O)[C@H]5CSC(=N5)/C(=C/C)NC(=O)[C@H]([C@@H](C)O)NC(=O)c5csc(n5)[C@]3(CC2)NC(=O)[C@H](C)NC(=O)C(=C)NC(=O)[C@H](C)NC(=O)[C@H]([C@@H](C)CC)N[C@@H]2C=Cc3c([C@H](C)O)cc(nc3[C@H]2O)C(=O)O[C@@H]4C)n1)C(N)=O [THIOSTREPTON]	> 100 µM	13 µM	–	6.8 µM	> 250 µM
CC1=C(/C=C/C(C)=C/C=C/C(C)=C/C(=O)O)C(C)(C)CCC1 [TRETINOIN]	–	5.3 µM	21 µM	6.7 µM	> 250 µM
IVERMECTIN	> 100 µM	–	–	–	> 250 µM

— ChEMBL document CHEMBL4392822, “HSP60/10 chaperonin systems are inhibited by a variety of approved drugs, natural products, and known bioactive molecules” (Bioorg Med Chem Lett, 2019)
